# Data as given in ChEMBL document CHEMBL1129427, “Novel AMPA receptor antagonists: synthesis and structure-activity relationships of 1-hydroxy-7-(1H-imidazol-1-yl)-6-nitro-2,3(1H,4H)- quinoxalinedione and related compounds” (J Med Chem, 1996).
# Tests used:
# [1] = target: Glutamate receptor ionotropic, AMPA (Rattus norvegicus, UniProt P19490+P19491+P19492+P19493)
# Description: Binding affinity towards Ionotropic glutamate receptor AMPA was determined in rat whole brain membrane using [3H]AMPA as radioligand
# [2] = target: Glutamate receptor ionotropic, NMDA 1 (Rattus norvegicus, UniProt P35439); assay: Binding affinity towards glycine binding site on NMDA receptor was determined in rat whole brain membrane using strychnine-insensitive [3H]Gly as radioligand; assay type: cell membranes
# Glutamate NMDA receptor = assay: Binding affinity towards NMDA receptor was determined in rat whole brain membrane using NMDA-sensitive [3H]Glu as radioligand; assay type: cell membranes
# [3] = target: Glutamate receptor ionotropic, kainate; assay: Binding affinity towards Ionotropic glutamate receptor kainate was determined in rat cortical membrane using [3H]KA as radioligand; assay type: cell membranes
Ki [1] [µM],Structure (SMILES),also measured
0.38,COn1c(=O)c(=O)[nH]c2cc([N+](=O)[O-])c(-n3ccnc3)cc21,–
0.14,CCCn1c(=O)c(=O)[nH]c2cc([N+](=O)[O-])c(-n3ccnc3)cc21,–
0.33,Cn1c(=O)c(=O)[nH]c2cc([N+](=O)[O-])c(-n3ccnc3)cc21,–
0.42,O=c1[nH]c2cc([N+](=O)[O-])c(-n3ccnc3)cc2n(CCO)c1=O,–
0.05,Cc1cn(-c2cc3c(cc2[N+](=O)[O-])[nH]c(=O)c(=O)n3O)cn1,–
0.3,CCOn1c(=O)c(=O)[nH]c2cc([N+](=O)[O-])c(-n3ccnc3)cc21,–
4.5,CCCn1c(=O)c(=O)[nH]c2cc(-n3ccnc3)c([N+](=O)[O-])cc21,–
0.19,CCn1c(=O)c(=O)[nH]c2cc([N+](=O)[O-])c(-n3ccnc3)cc21,–
0.84,CN(C)CCn1c(=O)c(=O)[nH]c2cc([N+](=O)[O-])c(-n3ccnc3)cc21,–

# The next lines start with the compound.
Structure (SMILES),Ki [1] [µM],also measured
O=c1[nH]c2cc([N+](=O)[O-])c(-n3ccnc3)cc2n(C2CCNC2)c1=O (configuration not stated),0.55,–
CC(C)CCn1c(=O)c(=O)[nH]c2cc([N+](=O)[O-])c(-n3ccnc3)cc21,0.23,–
O=c1[nH]c2cc([N+](=O)[O-])c(-n3ccnc3)cc2n(C2CN3CCC2CC3)c1=O (configuration not stated),1,–
O=c1[nH]c2cc(-n3ccnc3)c([N+](=O)[O-])cc2[nH]c1=O [YM-90K],–,Ki [2]: 37 µM
O=c1[nH]c2cc([N+](=O)[O-])c(-n3ccnc3)cc2n(C2CCCCC2)c1=O,0.11,–
O=c1[nH]c2cc(-n3ccnc3)c([N+](=O)[O-])cc2n(O)c1=O,0.44,–
O=c1[nH]c2cc([N+](=O)[O-])c(-n3cncn3)cc2n(O)c1=O,0.18,–
O=c1[nH]c2cc([N+](=O)[O-])c(-n3ccnc3)cc2n(CC2CCCCC2)c1=O,0.79,–
CCCCCCCCCCn1c(=O)c(=O)[nH]c2cc([N+](=O)[O-])c(-n3ccnc3)cc21,8.9,–
O=c1[nH]c2cc([N+](=O)[O-])c(-n3ccnc3)cc2n(O)c1=O,0.021,Ki (Glutamate NMDA receptor): 12 µM; Ki [3]: 0.63 µM; Ki [2]: 4.2 µM
